Results taken from article PMC6695811, “Protein Phosphatase Ppz1 Is Not Regulated by a Hal3-Like Protein in Plant Pathogen Ustilago maydis” (International Journal of Molecular Sciences, 2019).

How the values were obtained:
Assay in all cases: phosphatase activity assay
Assay type in all cases: biochemical
Conditions in all cases: 10 mM pNPP
ScPpz1 = molecular target: T1, ScPpz1 (Saccharomyces cerevisiae, UniProt P26570)
T1 construct: gene PPZ1; full length, 692 residues, GST fusion from E. coli BL21(DE3) RIL, GST tag cut by PreScission
T1 sequence (P26570 1-692): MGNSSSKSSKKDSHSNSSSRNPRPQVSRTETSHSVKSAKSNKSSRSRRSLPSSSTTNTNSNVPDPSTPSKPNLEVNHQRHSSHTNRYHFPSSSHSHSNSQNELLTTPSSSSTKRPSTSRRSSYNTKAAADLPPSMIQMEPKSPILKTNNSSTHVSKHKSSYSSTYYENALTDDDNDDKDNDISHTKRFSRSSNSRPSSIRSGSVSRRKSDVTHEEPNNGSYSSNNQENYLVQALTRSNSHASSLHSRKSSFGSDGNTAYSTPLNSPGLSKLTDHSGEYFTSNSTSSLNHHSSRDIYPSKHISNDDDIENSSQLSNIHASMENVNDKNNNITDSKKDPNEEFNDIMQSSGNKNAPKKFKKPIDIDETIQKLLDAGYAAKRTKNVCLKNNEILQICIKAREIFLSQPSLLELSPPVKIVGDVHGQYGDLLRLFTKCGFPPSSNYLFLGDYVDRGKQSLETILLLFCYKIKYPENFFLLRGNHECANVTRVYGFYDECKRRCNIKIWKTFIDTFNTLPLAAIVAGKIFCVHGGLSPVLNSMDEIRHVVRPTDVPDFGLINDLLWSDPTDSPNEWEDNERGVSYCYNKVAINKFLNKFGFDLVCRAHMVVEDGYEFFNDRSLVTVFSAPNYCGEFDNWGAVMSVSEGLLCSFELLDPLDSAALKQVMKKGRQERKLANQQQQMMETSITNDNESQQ

UmPpz1-s = molecular target: T2, UmPpz1-s (Mycosarcoma maydis, UniProt A0A0D1DW62)
T2 construct: gene UMAG_04827; short version lacking residues 1-8 (starts at Met9), pGEX-6p-1, E. coli BL21(DE3) RIL, GST tag cut by PreScission
T2 sequence (A0A0D1DW62 9-497): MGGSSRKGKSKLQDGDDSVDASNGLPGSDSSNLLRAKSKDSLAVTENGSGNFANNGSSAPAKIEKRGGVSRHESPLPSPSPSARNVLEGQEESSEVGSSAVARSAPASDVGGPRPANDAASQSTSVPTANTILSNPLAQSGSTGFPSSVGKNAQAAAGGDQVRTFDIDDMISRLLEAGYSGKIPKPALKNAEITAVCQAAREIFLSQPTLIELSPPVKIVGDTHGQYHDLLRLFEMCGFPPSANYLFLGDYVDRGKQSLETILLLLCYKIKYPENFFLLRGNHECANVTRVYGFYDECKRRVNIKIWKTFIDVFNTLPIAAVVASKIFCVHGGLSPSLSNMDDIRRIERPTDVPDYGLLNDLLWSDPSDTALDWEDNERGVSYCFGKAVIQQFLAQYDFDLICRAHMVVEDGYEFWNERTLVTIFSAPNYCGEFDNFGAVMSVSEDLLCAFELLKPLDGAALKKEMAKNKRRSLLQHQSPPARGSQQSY

UmPpz1 = molecular target: T3, UmPpz1 (Mycosarcoma maydis, UniProt A0A0D1DW62)
T3 construct: gene UMAG_04827; full-length ORF, 497 residues, from FB1 genomic DNA in pGEX-6p-1, E. coli BL21(DE3) RIL, GST tag cut by PreScission
T3 sequence (A0A0D1DW62 1-497): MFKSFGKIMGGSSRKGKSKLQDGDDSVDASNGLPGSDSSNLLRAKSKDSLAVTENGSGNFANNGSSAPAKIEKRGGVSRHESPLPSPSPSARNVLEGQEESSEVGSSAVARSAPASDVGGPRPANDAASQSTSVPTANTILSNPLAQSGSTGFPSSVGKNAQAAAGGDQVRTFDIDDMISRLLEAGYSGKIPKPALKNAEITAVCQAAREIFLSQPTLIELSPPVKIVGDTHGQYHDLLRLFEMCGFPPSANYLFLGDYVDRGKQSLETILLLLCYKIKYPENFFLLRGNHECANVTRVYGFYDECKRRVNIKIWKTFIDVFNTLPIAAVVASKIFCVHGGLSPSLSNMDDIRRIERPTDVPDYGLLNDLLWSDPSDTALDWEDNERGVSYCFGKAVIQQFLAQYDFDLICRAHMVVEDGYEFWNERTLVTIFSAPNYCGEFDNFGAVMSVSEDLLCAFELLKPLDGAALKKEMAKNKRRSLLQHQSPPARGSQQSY

O=[N+]([O-])c1ccc(OP(=O)(O)O)cc1 [p-nitrophenylphosphate]
phosphatase activity assay (ScPpz1): substrate pNPP which was similar to that observed for ScPpz1
phosphatase activity assay (UmPpz1-s): The recombinant enzyme (as well as UmPpz1-s) showed phosphatase activity against the synthetic substrate pNPP
phosphatase activity assay (UmPpz1): showed phosphatase activity against the synthetic substrate pNPP
